Measurements published in patent US12336554B2, “Cannabinoid acid beverage” (CHEMTOR, LP, priority 2020, dated 2025).

Experiment: Dissolution of THCA crystalline powder in distilled water at different pH
Assay type: physicochemical
Protocol: 50 mgs of high purity (>99% by weight) THCA crystalline powder was added to 250 ml of distilled water at a pH of 6.5.
The distilled water and THCA from Comparative Example 1 was brought to a pH of 9.5 through the addition of a base and warmed to 40° C.

## CCCCCc1cc2c(c(O)c1C(=O)O)[C@@H]1C=C(C)CC[C@H]1C(C)(C)O2 [THCA, tetrahydrocannabinolic acid]
50 mgs in 250 ml distilled water, pH 6.5, heated to 100° C.
  Dissolution in distilled water after heating: still did not dissolve
50 mgs in 250 ml distilled water, pH 6.5, immediately and after stirring
  Dissolution in distilled water: did not immediately dissolve, not did it dissolve after stirring
50 mgs in 250 ml water, pH 9.5 by addition of a base, warmed to 40° C.
  Dissolution in alkaline water: dissolved into solution and produced a clear aqueous solution
pH 9.5 solution cooled to room temperature
  Solution stability after cooling: the solution remained clear
